ChEMBL document CHEMBL3272098, “Reactions of 2-acyloxyisobutyryl halides with nucleosides. 7. Synthesis and biological evaluation of some 2,2'-anhydro-1(3',5'-di-O-acyl-beta-D-arabinofuranosyl)cytosine hydrochlorides” (J Med Chem, 1976)
Active and inactive are the calls of the source. No cut-off for these calls is given here.

What was measured:
HeLa = experiment: Cytotoxicity against human HeLa cells after 48 hrs by Coulter counting analysis; format: functional; settings: read-out: ED50 (the source's name)
Vaccinia virus = experiment: Antiviral activity against Vaccinia virus IHD infected in African green monkey BGM cells after 6 days by plaque reduction assay; format: functional; settings: Orthopoxvirus vaccinia, 144 h, read-out: ED50 (the source's name)
Herpesviridae sp. = experiment: Antiviral activity against Herpes simplex virus HF infected in African green monkey BGM cells after 6 days by plaque reduction assay; format: functional; settings: 144 h, read-out: ED50 (the source's name)
BGM = experiment: Antiviral activity against Poliovirus type 1 Mahoney infected in African green monkey BGM cells after 5 days by pulp disk diffusion assay; format: functional, cell-based; settings: Human poliovirus 1 Mahoney
Measles morbillivirus = experiment: Antiviral activity against Measles virus infected in African green monkey BGM cells after 5 days by pulp disk diffusion assay; format: functional, organism-based
[1] = tested on: unidentified influenza virus; experiment: Antiviral activity against Influenza virus Ao/WNS infected in monkey LLC-MK2 cells after 5 days by pulp disk diffusion assay; format: functional, organism-based
L1210 [2] = experiment: Antitumor activity against mouse L1210 cells allografted in BDF1 mouse assessed as increase in life span at 50 mg/kg, ip administered 24 hrs post-implantation measured up to 30 days relative to control; format: functional; settings: route intraperitoneal
L1210 [3] = experiment: Antitumor activity against mouse L1210 cells allografted in BDF1 mouse assessed as increase in life span at 200 mg/kg, ip administered 24 hrs post-implantation measured up to 30 days relative to control; format: functional; settings: route intraperitoneal
L1210 [4] = experiment: Antitumor activity against mouse L1210 cells allografted in BDF1 mouse assessed as increase in life span at 500 mg/kg, ip administered 24 hrs post-implantation measured up to 30 days relative to control; format: functional; settings: route intraperitoneal
L1210 [5] = experiment: Antitumor activity against mouse L1210 cells allografted in BDF1 mouse assessed as increase in life span at 1000 mg/kg, ip administered 24 hrs post-implantation measured up to 30 days relative to control; format: functional; settings: route intraperitoneal
L1210 [6] = experiment: Antitumor activity against mouse L1210 cells allografted in BDF1 mouse assessed as survival at 500 mg/kg, ip administered 24 hrs post-implantation after 30 days; format: functional, organism-based; parameters: dose 500 mg/kg
L1210 [7] = experiment: Antitumor activity against mouse L1210 cells allografted in BDF1 mouse assessed as survival at 1000 mg/kg, ip administered 24 hrs post-implantation after 30 days; format: functional, organism-based; parameters: dose 1000 mg/kg
Mus musculus [8] = experiment: Toxicity in BDF1 mouse allografted with mouse L1210 cells at 50 to 1000 mg/kg, ip administered 24 hrs post-implantation measured up to 30 days; format: organism-based; parameters: dose 50-1000 mg/kg, route intraperitoneal; settings: in vivo
L1210 [9] = experiment: Antitumor activity against mouse L1210 cells allografted in po dosed BDF1 mouse administered 24 hrs post-implantation; format: functional, organism-based
Mus musculus [10] = experiment: Toxicity in BDF1 mouse allografted with mouse L1210 cells assessed as reduction in average life span at 500 mg/kg, ip administered 24 hrs post-implantation measured up to 30 days relative to control; format: organism-based; parameters: dose 500 mg/kg, route intraperitoneal; scale not given: the % may be the effect or the level left; settings: in vivo
Mus musculus [11] = experiment: Toxicity in BDF1 mouse allografted with mouse L1210 cells assessed as reduction in average life span at 1000 mg/kg, ip administered 24 hrs post-implantation measured up to 30 days relative to control; format: organism-based; parameters: dose 1000 mg/kg, route intraperitoneal; scale not given: the % may be the effect or the level left; settings: in vivo
L1210 [12] = experiment: Antitumor activity against mouse L1210 cells allografted in BDF1 mouse assessed as survival at 200 mg/kg, ip administered 24 hrs post-implantation after 30 days; format: functional, organism-based; parameters: dose 200 mg/kg
Mus musculus [13] = experiment: Toxicity in BDF1 mouse allografted with mouse L1210 cells assessed as survival at 500 mg/kg, ip administered 24 hrs post-implantation after 30 days; format: organism-based; parameters: dose 500 mg/kg, route intraperitoneal; settings: in vivo, 720 h
Mus musculus [14] = experiment: Toxicity in BDF1 mouse allografted with mouse L1210 cells assessed as survival at 1000 mg/kg, ip administered 24 hrs post-implantation after 30 days; format: organism-based; parameters: dose 1000 mg/kg, route intraperitoneal; settings: in vivo, 720 h
Mus musculus [15] = experiment: Toxicity in BDF1 mouse allografted with mouse L1210 cells assessed as reduction in average life span at 200 mg/kg, ip administered 24 hrs post-implantation measured up to 30 days relative to control; format: organism-based; parameters: dose 200 mg/kg, route intraperitoneal; scale not given: the % may be the effect or the level left; settings: in vivo
L1210 [16] = experiment: Antitumor activity against mouse L1210 cells allografted in BDF1 mouse assessed as survival at 50 mg/kg, ip administered 24 hrs post-implantation after 30 days; format: functional, organism-based; parameters: dose 50 mg/kg
Mus musculus [17] = experiment: Toxicity in BDF1 mouse allografted with mouse L1210 cells assessed as survival at 200 mg/kg, ip administered 24 hrs post-implantation after 30 days; format: organism-based; parameters: dose 200 mg/kg, route intraperitoneal; settings: in vivo, 720 h
Mus musculus [18] = experiment: Toxicity in BDF1 mouse allografted with mouse L1210 cells at 50 mg/kg, ip administered 24 hrs post-implantation measured up to 30 days; format: organism-based; parameters: dose 50 mg/kg, route intraperitoneal; settings: in vivo

Row | Structure (SMILES) | EC50 (HeLa) [µg/mL] | EC50 (Vaccinia virus) [µM] | EC50 (Herpesviridae sp.) [µM] | Activity (BGM) | Activity (Measles morbillivirus) | Activity [1] | ILS at 50 mg/kg (L1210 [2]) [%] | ILS at 200 mg/kg (L1210 [3]) [%] | Activity (L1210 [9]) | Activity (Mus musculus [10]) [%] | Activity (Mus musculus [11]) [%] | Activity (Mus musculus [13]) | Activity (Mus musculus [14]) | Activity (Mus musculus [15]) [%] | Activity (L1210 [16]) | Activity (Mus musculus [17]) | Activity (Mus musculus [18]) | other results
1 | CCCCCCCC/C=C\CCCCCCCCCCCC(=O)OC[C@H]1O[C@@H]2[C@@H](Oc3nc(=N)ccn32)[C@@H]1OC(=O)CCCCCCCCCCC/C=C\CCCCCCCC.Cl | 4 | > 30 | > 30 | inactive | inactive | inactive | > 202 | > 267 | inactive |  |  |  |  |  |  |  |  | ILS at 500 mg/kg (L1210 [4]): > 257%; ILS at 1000 mg/kg (L1210 [5]): > 257%; Activity (L1210 [6]): Active; Activity (L1210 [7]): Active; Activity (Mus musculus [8]): Non-toxic
2 | CCCCCCCC/C=C\CCCCCCCC(=O)OC[C@H]1O[C@@H]2[C@@H](Oc3nc(=N)ccn32)[C@@H]1OC(=O)CCCCCCC/C=C\CCCCCCCC.Cl | 0.3 | 3.2 | 8.5 | inactive | inactive | inactive | > 141 | > 257 | inactive | 23 | 31 | Toxic | Toxic |  |  |  |  | Activity (L1210 [12]): Active
3 | CCCCCC(=O)OC[C@H]1O[C@@H]2[C@@H](Oc3nc(=N)ccn32)[C@@H]1OC(=O)CCCCC.Cl | 0.11 | 0.27 | 1 | inactive | inactive | inactive | 26 |  | inactive | 86 | 100 | Toxic | Toxic | 61 | inactive | Toxic |  | 
4 | C=CCCCCCCCCC(=O)OC[C@H]1O[C@@H]2[C@@H](Oc3nc(=N)ccn32)[C@@H]1OC(=O)CCCCCCCCC=C.Cl | 0.1 | 0.44 | 0.78 | inactive | inactive | inactive | 24 |  | inactive |  |  |  |  | 74 | inactive | Toxic | Non-toxic | 
5 | C/C=C/C=C/C(=O)OC[C@H]1O[C@@H]2[C@@H](Oc3nc(=N)ccn32)[C@@H]1OC(=O)/C=C/C=C/C.Cl | 0.1 | 5.8 | > 10 | inactive | inactive | inactive | 1 |  | inactive |  |  |  |  | 100 | inactive | Toxic | Non-toxic | 
